Test systems include SK-MEL-2 melanoma; M14 melanoma; NCI-H226 lung; HCT-15 colon; TK-10 renal; HT29 colon; EKVX NSCLC; UACC-62 melanoma; CCRF-CEM leukemia; OVCAR-5 ovarian.
What all share (assay): NCI tumour cell line growth inhibition, 48 h

“And” between values parts separate entries of the source, which are not always exact repeats. Equal entries are not always repeated.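 Tested at 5 concentrations; 48 h exposure; 96-well plates; endpoints linearly interpolated, else capped at highest concentration. GI50 = concentration required for 50% inhibition of growth. TGI is the concentration that stops growth completely.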

As to `Cc1cc2nc3c4cc(N)ccc4n(CCN(C)C)c3nc2cc1C`, the GI50 in the assay with SK-MEL-2 melanoma was 1.34 µM; in the assay with M14 melanoma it was 1.12 µM; in the assay with NCI-H226 lung, 0.896 µM; in the assay on HCT-15 colon, 0.499 µM; in the assay with TK-10 renal, 1.99 µM; in the assay on HT29 colon, 0.478 µM. Further, the GI50 is 1.59 µM in the assay with EKVX NSCLC, 0.824 µM in the assay on UACC-62 melanoma, 0.891 µM with CCRF-CEM leukemia and 0.914 µM with OVCAR-5 ovarian. In addition, the TGI in the assay with SK-MEL-2 melanoma worked out at 3.89 µM; in the assay on M14 melanoma, 2.88 µM; with NCI-H226 lung, 4.1 µM; in the assay on HCT-15 colon, 10.2 µM; in the assay with TK-10 renal, 7.54 µM; in the assay on HT29 colon, 6.59 µM. The TGI stood at 12.5 µM with EKVX NSCLC, 2.75 µM with UACC-62 melanoma, 17.6 µM in the assay with CCRF-CEM leukemia and 9.66 µM with OVCAR-5 ovarian.
Regarding `CC(C)(C)c1nn(-c2ccccc2)c2c1C(=O)CSC(c1ccccc1Cl)N2` (stereo not given), the GI50 in the assay on SK-MEL-2 melanoma was 2.1 µM; with M14 melanoma it was 1.18 µM; in the assay with NCI-H226 lung it was 1.61 µM; in the assay on HCT-15 colon, 2 µM; in the assay on TK-10 renal, 11.1 µM; in the assay with HT29 colon, 1.97 µM. The GI50 with EKVX NSCLC is 3.71 µM; in the assay on UACC-62 melanoma, 0.775 µM; in the assay with CCRF-CEM leukemia it was 2.48 µM; with OVCAR-5 ovarian, 3.18 µM. In addition, the TGI in the assay on SK-MEL-2 melanoma came to 13.4 µM; in the assay with M14 melanoma it was 6.45 µM; in the assay on NCI-H226 lung, 5.97 µM; with HCT-15 colon, 16 µM; in the assay with TK-10 renal, 29.4 µM; with HT29 colon it was 6.55 µM. The TGI in the assay on EKVX NSCLC was 26.1 µM; with UACC-62 melanoma, 15 µM; in the assay with CCRF-CEM leukemia it was 13.5 µM; in the assay with OVCAR-5 ovarian, 13.1 µM.
Take `CC(=O)[CH-]C(=O)c1ccccc1.CC(=O)[CH-]C(=O)c1ccccc1.CC(C)CCCC(C)[C@H]1CCC2[C@@H]3CC=C4C[C@@H]([O-])CC[C@]4(C)C3CC[C@@]21C.CC[O-].[Ti+4]` (stereo not given in full): the GI50 in the assay on SK-MEL-2 melanoma is 22.4 µM; in the assay with M14 melanoma, 48.3 µM; in the assay with NCI-H226 lung, more than 100 µM; in the assay with HCT-15 colon, 53.8 µM; with TK-10 renal, 45.6 µM; in the assay on HT29 colon, 64 µM. Further, the GI50 in the assay on EKVX NSCLC is 66.8 µM; with UACC-62 melanoma it was 82.3 µM; with CCRF-CEM leukemia, 35.5 µM; with OVCAR-5 ovarian it was more than 100 µM. Further, the TGI was 80.1 µM with SK-MEL-2 melanoma; more than 100 µM in the assay with M14 melanoma; more than 100 µM in the assay with NCI-H226 lung; more than 100 µM in the assay with HCT-15 colon; more than 100 µM in the assay on TK-10 renal; more than 100 µM with HT29 colon. Also, the TGI in the assay with EKVX NSCLC, in the assay on UACC-62 melanoma, in the assay on CCRF-CEM leukemia and with OVCAR-5 ovarian was more than 100 µM throughout.
With `Cc1c(-c2c(-c3ccc(F)o3)sc3ncnc(O[C@H](Cc4ccccc4OCc4ccnn4CC(F)(F)F)C(=O)O)c23)ccc(OCCN2CCN(C)CC2)c1Cl`, the GI50 was 0.03 µM in the assay with SK-MEL-2 melanoma; 1.32 µM in the assay with M14 melanoma; 5.89 µM with NCI-H226 lung; 6.49 µM in the assay on HCT-15 colon; 5.31 µM in the assay on TK-10 renal; 4.54 µM with HT29 colon. Besides, the GI50 in the assay on EKVX NSCLC was 4.12 µM; in the assay on UACC-62 melanoma, 0.249 µM; in the assay with CCRF-CEM leukemia, 0.318 µM; in the assay on OVCAR-5 ovarian it was 4.81 µM. Also, the TGI in the assay with SK-MEL-2 melanoma was determined as 0.097 µM; with M14 melanoma it was 5.83 µM; with NCI-H226 lung it was 15.5 µM; with HCT-15 colon, 20.1 µM; in the assay on TK-10 renal, 16.2 µM; in the assay on HT29 colon it was 9.41 µM. The TGI amounted to 14.2 µM in the assay with EKVX NSCLC, 3.13 µM in the assay with UACC-62 melanoma, 9.49 µM with CCRF-CEM leukemia and 14.8 µM in the assay with OVCAR-5 ovarian.
As for `COC(=O)/C([Se]c1c(C)cc(C)cc1C)=C(\[Se]c1c(C)cc(C)cc1C)C(=O)OC`, the TGI in the assay on SK-MEL-2 melanoma, in the assay with M14 melanoma, in the assay with NCI-H226 lung, in the assay with HCT-15 colon, in the assay with TK-10 renal and with HT29 colon was more than 100 µM throughout. Besides, the TGI in the assay with EKVX NSCLC, in the assay on UACC-62 melanoma, in the assay on CCRF-CEM leukemia and in the assay on OVCAR-5 ovarian was more than 100 µM each time.
With `O=C(CN1CCN(CCCOc2c(-c3ccccc3)oc3ccccc3c2=O)CC1)Nc1ccc(Cl)cc1C(=O)c1ccccc1Cl`, the GI50 is 12.5 µM in the assay on SK-MEL-2 melanoma; 2.01 µM in the assay on M14 melanoma; 13.9 µM with NCI-H226 lung; 5.48 µM in the assay with HCT-15 colon; 16.6 µM in the assay with TK-10 renal; 3.09 µM in the assay with HT29 colon. The GI50 in the assay with EKVX NSCLC is 22.7 µM; with UACC-62 melanoma it was 12.3 µM; with CCRF-CEM leukemia it was 0.635 µM; in the assay with OVCAR-5 ovarian, 27.2 µM. In addition, the TGI in the assay on SK-MEL-2 melanoma was 31 µM; in the assay with M14 melanoma, 4.51 µM; in the assay on NCI-H226 lung it was 40.2 µM; with HCT-15 colon it was 53.8 µM; in the assay on TK-10 renal, 54.1 µM; in the assay with HT29 colon, more than 100 µM. The TGI with EKVX NSCLC is more than 100 µM; in the assay with UACC-62 melanoma it was 26.3 µM; in the assay with CCRF-CEM leukemia, 12 µM; in the assay with OVCAR-5 ovarian, 90.8 µM.
In the case of `CCOC(=O)N1CCc2cc(OC)c(OC)c3c2c1cc1cc(OC)c(OC)cc13`, the TGI in the assay with SK-MEL-2 melanoma is more than 51.8 µM; in the assay on M14 melanoma, 63.6 µM; with NCI-H226 lung, more than 100 µM; with HCT-15 colon it was 37.9 µM; in the assay on TK-10 renal it was more than 100 µM; with HT29 colon, 21.6 µM. For the same compound, the TGI with EKVX NSCLC is more than 100 µM; in the assay on UACC-62 melanoma it was 63 µM; in the assay on CCRF-CEM leukemia, more than 58.3 µM; in the assay with OVCAR-5 ovarian, more than 100 µM.
With `COc1ncc(-c2ccc3nccc(-c4ccnnc4)c3c2)cc1NS(=O)(=O)c1ccc(F)cc1F`, the GI50 was 0.0194 µM and < 0.01 µM in the assay on SK-MEL-2 melanoma; 0.013 µM and < 0.01 µM in the assay with M14 melanoma; 0.0269 µM and 0.0208 µM in the assay with NCI-H226 lung; 0.00632 µM and < 0.01 µM with HCT-15 colon; 0.00325 µM and < 0.01 µM with TK-10 renal; 0.00325 µM and < 0.01 µM in the assay on HT29 colon. Besides, the GI50 is 0.0138 µM and 0.013 µM with EKVX NSCLC; 0.00217 µM and < 0.01 µM with UACC-62 melanoma; 0.0333 µM and 0.0262 µM with CCRF-CEM leukemia; 0.00728 µM and < 0.01 µM in the assay on OVCAR-5 ovarian. In addition, the TGI was 0.227 µM and 0.15 µM in the assay with SK-MEL-2 melanoma; 0.794 µM and 0.485 µM with M14 melanoma; > 3.68 µM and 2.91 µM in the assay with NCI-H226 lung; > 4.83 µM and 5.11 µM in the assay on HCT-15 colon; 0.0831 µM and 0.0719 µM with TK-10 renal; > 10 µM and 4.25 µM in the assay on HT29 colon. Further, the TGI is 1.23 µM and 1.73 µM in the assay on EKVX NSCLC; 0.019 µM and 0.0263 µM with UACC-62 melanoma; 0.706 µM and 4.04 µM with CCRF-CEM leukemia; > 10 µM and 2.76 µM in the assay on OVCAR-5 ovarian.
